Patent publication US20240390487A1, “TLR AGONISTS FOR REDUCING ACTIVATION-INDUCED PD-1 EXPRESSION ON T CELLS AND METHODS OF USE” (WISCONSIN ALUMNI RESEARCH FOUNDATION, priority 2016, published 2024)

The compounds below were run on Purified DC (assay: IL-12 p70 ELISA of culture supernatant of TLR-agonist-stimulated DC). Settings: 24 hours, IL12 p70 by ELISA, versus media alone.
Format: cell-based, mice
Procedure: FIGS. 14A-14D. Changes in PD-1 expression following TLR stimulation are mediated by IL-12 secreted from APCs. Panel A: Purified OT-1 T cells (T), B cells (B), or dendritic cells (DC) were activated with SIINFEKL peptide (SEQ ID NO:1, OVA) or with a non-specific peptide (NS) in the presence of either TLR1/2 (TLR1/2) agonist, TLR7 agonist (TLR7), or media alone. After 24 hours, cells were washed and co-cultured with naïve purified OT-1 CD8+ T cells for an additional 24 hours and then assessed for expression of the indicated surface receptors (4-1BB, CD3, PD-1, LAG3, CTLA-4, and TIM3) by flow cytometry. Shown is the MFI for each marker, with samples assessed in triplicate. Panel B: Purified DC were stimulated in the presence of TLR1/2 agonist, TLR7 agonist, or media alone. After 24 hours, media was collected and used for culture of purified OT-1 CD8+ T cells with naïve DC in the presence of SIINFEKL peptide (SEQ ID NO:1, OVA) or non-specific (NS) peptide. After 24 hours, cells were assessed for expression of the indicated surface receptors (4-1BB, PD-1, LAG3, and CTLA-4) by flow cytometry. Shown is mean and standard error of the MFI for each marker, with samples assessed in triplicate. Panel C: Purified DC were stimulated in the presence of TLR1/2 agonist (Pam3), TLR3 agonist (PolyIC), TLR4 agonist (MPLA), TLR7/8 agonists (Gard, R848), TLR9 agonist (ODN), or media only (none) for 24 hours. Culture supernatant was then evaluated for the presence of IL12 p70 by ELISA. Asterisks indicate significant (p<0.05) IL-12 release compared to media alone. Panel D: Purified DC were stimulated in the presence of TLR1/2 agonist, TLR7 agonist, or media alone. After 24 hours, medium was collected and used for culture of purified OT-1 CD8+ T cells with naïve DC in the presence of SIINFEKL peptide (SEQ ID NO:1, OVA) and, where indicated, 0.1 ng/ml IL-12 or 0.12 μg/mL anti-IL-12 antibody. After 24 hours, cells were assessed for expression of the indicated surface receptors (4-1BB, PD-1, LAG3, and CTLA-4) by flow cytometry. Shown is mean and standard error of the MFI for each marker, with samples assessed in triplicate and are representative of two similar experiments. Asterisks indicate P<0.01.
Changes in PD-1 expression following TLR stimulation are mediated by IL-12 secreted from APCs: TLR are expressed by both T cells and professional APC. To determine if the effects on T-cell checkpoint expression were mediated by direct effects of TLR ligands on T cells or APC, purified OT-1 T cells were activated with SIINFEKL peptide (SEQ ID NO:1) alone or in the presence of TLR1/2 or TLR7 agonist, or with purified DC or B cells pre-treated with TLR agonists. After 24 hours cells were evaluated for expression of 4-1BB, CD3, PD-1, LAG-3, CTLA-4, and TIM-3. […]

| Compound | secretion of IL-12 by DC |
| --- | --- |
| CCNCc1nc2c(N)nc3ccccc3c2n1CC(C)(C)O [Gardiquimod] | greatest secretion |
| Monophosphoryl Lipid A [MPLAs] | No significant secretion |
| Pam3CSK4 | greatest secretion |
| Poly(I:C) [PolyI:C] | No significant secretion |
